Test results: patent US12509431B2, “1,4-dihydroquinazolinone compounds and uses thereof” (Edgewise Therapeutics, Inc., priority 2022, dated 2025)

Tests used:
Assay type in all cases: biochemical
Conditions in all cases: Table 7
[1] = system: Rabbit Skeletal myofibrils (rabbit psoas muscle); experiment: Myofibril ATPase assay (PK/LDH NADH-coupled), skeletal myofibrils
Summary of the method: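 ATPase rate taken as linear-regression slope of A340 (NADH depletion through PK/LDH coupling) over a 75 min kinetic read, with psoas-derived rabbit skeletal myofibrils at pH 7.0. Four-parameter fits of vehicle-normalized activity give EC25 and, where reached, EC50.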

Porcine Atria myofibrils = experiment: Myofibril ATPase assay (PK/LDH NADH-coupled), atria myofibrils
Summary of the method: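 Values are EC25% (and, for inhibitors, EC50%) from 4-parameter logistic fits of activity normalized to vehicle wells. Rates came from linear regression of 340 nm kinetic reads (every 1.5-2 min, 75 min) of NADH-coupled ATP turnover by porcine atria myofibrils.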

[2] = target: T1, Porcine Ventricle myofibrils (left ventricle of Yucatan minipigs) (Sus scrofa, UniProt P79293); experiment: Myofibril ATPase assay (PK/LDH NADH-coupled), ventricle myofibrils
T1 construct: Myofibrils from porcine cardiac muscle was isolated from the left ventricle of Yucatan minipigs; tissue Exemplar Genetics; host or cells: left ventricle of Yucatan minipigs
Summary of the method: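 NADH depletion (A340) coupled through pyruvate kinase/lactate dehydrogenase reports ATPase rate of porcine left-ventricle myofibrils over 75 min kinetic reads. Regression slopes, vehicle-normalized, fitted by 4-parameter logistic give EC25 and, where available, EC50.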

T1 sequence (P79293 whole entry): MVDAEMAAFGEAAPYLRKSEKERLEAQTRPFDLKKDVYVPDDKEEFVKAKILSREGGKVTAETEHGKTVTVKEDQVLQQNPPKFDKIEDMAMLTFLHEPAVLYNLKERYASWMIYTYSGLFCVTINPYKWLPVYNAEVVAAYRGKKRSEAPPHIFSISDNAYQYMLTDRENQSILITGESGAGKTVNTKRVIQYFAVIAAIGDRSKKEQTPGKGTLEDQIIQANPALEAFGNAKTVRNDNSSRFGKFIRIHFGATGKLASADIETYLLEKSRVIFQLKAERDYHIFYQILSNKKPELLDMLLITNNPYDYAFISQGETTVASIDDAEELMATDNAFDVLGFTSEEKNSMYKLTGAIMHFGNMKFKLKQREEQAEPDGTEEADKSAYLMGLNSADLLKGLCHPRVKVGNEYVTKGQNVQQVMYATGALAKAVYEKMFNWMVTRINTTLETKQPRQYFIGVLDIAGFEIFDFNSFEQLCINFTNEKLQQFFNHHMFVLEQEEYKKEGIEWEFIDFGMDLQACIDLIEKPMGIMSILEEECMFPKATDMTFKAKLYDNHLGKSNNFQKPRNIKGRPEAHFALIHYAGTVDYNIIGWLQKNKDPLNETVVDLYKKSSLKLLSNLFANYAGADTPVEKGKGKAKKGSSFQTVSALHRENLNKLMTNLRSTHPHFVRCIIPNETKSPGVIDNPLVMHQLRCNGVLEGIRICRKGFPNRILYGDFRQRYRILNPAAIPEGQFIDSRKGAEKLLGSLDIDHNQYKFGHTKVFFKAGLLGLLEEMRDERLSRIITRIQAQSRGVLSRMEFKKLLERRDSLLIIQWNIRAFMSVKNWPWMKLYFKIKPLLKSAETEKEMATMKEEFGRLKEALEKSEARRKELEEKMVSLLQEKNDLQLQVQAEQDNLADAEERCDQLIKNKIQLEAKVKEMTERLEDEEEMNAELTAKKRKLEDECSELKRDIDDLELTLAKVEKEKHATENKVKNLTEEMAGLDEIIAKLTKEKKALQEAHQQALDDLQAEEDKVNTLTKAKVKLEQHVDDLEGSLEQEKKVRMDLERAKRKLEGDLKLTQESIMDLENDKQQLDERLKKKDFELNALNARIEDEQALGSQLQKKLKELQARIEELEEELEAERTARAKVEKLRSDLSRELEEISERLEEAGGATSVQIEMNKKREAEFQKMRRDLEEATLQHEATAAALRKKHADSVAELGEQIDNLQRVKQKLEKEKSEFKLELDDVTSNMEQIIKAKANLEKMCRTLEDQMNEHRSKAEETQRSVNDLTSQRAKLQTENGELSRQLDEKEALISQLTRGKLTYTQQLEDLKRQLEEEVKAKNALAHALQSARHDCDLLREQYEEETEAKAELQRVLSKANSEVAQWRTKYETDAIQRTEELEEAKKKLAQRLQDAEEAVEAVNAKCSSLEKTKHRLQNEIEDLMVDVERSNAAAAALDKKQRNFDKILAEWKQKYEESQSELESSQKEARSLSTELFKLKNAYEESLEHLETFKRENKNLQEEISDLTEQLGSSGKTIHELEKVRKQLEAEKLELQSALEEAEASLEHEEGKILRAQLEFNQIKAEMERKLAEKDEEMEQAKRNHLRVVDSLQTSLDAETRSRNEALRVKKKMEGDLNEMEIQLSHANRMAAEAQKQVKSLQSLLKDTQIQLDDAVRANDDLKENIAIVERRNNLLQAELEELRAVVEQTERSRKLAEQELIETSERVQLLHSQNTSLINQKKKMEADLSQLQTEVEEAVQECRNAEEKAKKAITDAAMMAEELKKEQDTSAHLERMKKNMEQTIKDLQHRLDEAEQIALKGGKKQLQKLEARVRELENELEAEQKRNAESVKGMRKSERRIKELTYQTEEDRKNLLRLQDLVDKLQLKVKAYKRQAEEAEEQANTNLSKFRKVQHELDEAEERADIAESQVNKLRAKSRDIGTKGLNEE

Row | Compound | Rabbit Psoas IC25 [1] [µM] | Porcine Atria IC25 (Porcine Atria myofibrils) [µM] | Porcine Ventricle IC25 [2] [µM]
1 | O=C(CN1Cc2c(ccnc2C(F)(F)F)NC1=O)N[C@@H]1COc2cc(F)cc(F)c21 [Compound N18] | 0.03098 | 0.12 | 1.324
2 | O=C(CN1Cc2c(ccnc2C(F)(F)F)NC1=O)N[C@H]1COc2cc(F)cc(F)c21 [Compound N19] | 2.245 | 2.00 | 11.46
3 | C[C@@H](NC(=O)CN1Cc2cnccc2NC1=O)c1ccc(C#N)cc1F [Compound N20] | 0.1315 | 100.00 | 100
4 | C[C@H](NC(=O)CN1Cc2cnccc2NC1=O)c1ccc(C#N)cc1F [Compound N21] | 6.632 | 4.36 | 13.45
5 | C[C@@H](NC(=O)CN1Cc2c(ccnc2C#N)NC1=O)c1ccc(C#N)cc1F [Compound N22] | 0.2583 | 100.00 | 100
6 | C[C@H](NC(=O)CN1Cc2c(ccnc2C#N)NC1=O)c1ccc(C#N)cc1F [Compound N23] | 0.0165 | 0.28 | 0.1625
7 | C[C@H](NC(=O)CN1Cc2c(C#N)cncc2NC1=O)c1ccc(F)cc1F [Compound N24, 2-{5-Cyano-2-oxo-1H,4H-pyrido[3,4-d]pyrimidin-3-yl}-N-[(1S)-1-(2,4-difluorophenyl)ethyl]acetamide] | 0.2119 | 2.97 | 37.65
8 | C[C@@H](NC(=O)CN1C(=O)Nc2cccnc2C12CC2)c1ncc(C#N)cc1F [Compound N25] | 1.324 | 13.11 | 100
9 | O=C(CN1C(=O)Nc2cccnc2C12CC2)N[C@H](CO)c1ccc(F)cc1F [Compound N27] | 100 | 100.00 | 100
10 | O=C(CN1C(=O)Nc2cccnc2C12CC2)N[C@@H](CO)c1ccc(F)cc1F [Compound N28] | 0.2814 | 0.41 | 6.602
11 | C[C@@H](NC(=O)CN1C(=O)Nc2cccnc2C12COC2)c1ncc(F)cc1F [Compound N29] | 100 | 100.00 | 100
12 | C[C@H](NC(=O)CN1C(=O)Nc2cccnc2C12COC2)c1ncc(F)cc1F [Compound N30] | 5.318 | 35.72 | 100
13 | N#Cc1ccc([C@@H](CO)NC(=O)CN2Cc3c(ccnc3C#N)NC2=O)c(F)c1 [Compound N31] | 0.0533 | 0.38 | 1.237
14 | N#Cc1ccc([C@H](CO)NC(=O)CN2Cc3c(ccnc3C#N)NC2=O)c(F)c1 [Compound N32] | 2.872 | 100.00 | 100
15 | O=C(CN1C(=O)Nc2cccnc2C12CC2)N[C@H]1COc2cc(F)cc(F)c21 [Compound N34] | 1.366 | 8.44 | 100
16 | C[C@H](NC(=O)CN1C(=O)Nc2cccnc2C12COC2)c1ccc(F)cc1F [Compound N35] | 0.9847 | 6.39 | 100
17 | N#Cc1ccc([C@@H](CO)NC(=O)CN2C(=O)Nc3cccnc3C23CC3)c(F)c1 [Compound N36] | 1.604 | 8.01 | 25.16
18 | N#Cc1ccc([C@H](CO)NC(=O)CN2C(=O)Nc3cccnc3C23CC3)c(F)c1 [Compound N37] | 0.0599 | 0.20 | 4.582
19 | C[C@@H](NC(=O)CN1Cc2c(C#N)cncc2NC1=O)c1ncc(F)cc1F [Compound N38] | 5.343 | 60.44 | 100
20 | C[C@H](NC(=O)CN1Cc2c(C#N)cncc2NC1=O)c1ncc(F)cc1F [Compound N39] | 1.979 | 9.59 | 51.8
21 | N#Cc1nccc2c1CN(CC(=O)N[C@H](CO)c1ccc(F)cc1F)C(=O)N2 [Compound N40] | 4.177 | 87.45 | 100
22 | N#Cc1nccc2c1CN(CC(=O)N[C@@H](CO)c1ccc(F)cc1F)C(=O)N2 [Compound N41] | 0.0762 | 1.12 | 2.357
23 | C[C@H](NC(=O)CN1C(=O)Nc2ccc(O)nc2C12CC2)c1ccc(F)cc1F [Compound N42] | 100 | 100.00 | 100
24 | O=C(CN1C(=O)Nc2cccnc2C12CC2)N[C@H](CO)c1ccc(F)cc1F [Compound N43] | 100 | 32.69 | 100

Other lines, results leading:

Row | Rabbit Psoas IC25 [1] [µM] | Porcine Atria IC25 (Porcine Atria myofibrils) [µM] | Porcine Ventricle IC25 [2] [µM] | Compound
25 | 0.5658 | 1.18 | 18.96 | O=C(CN1C(=O)Nc2cccnc2C12CC2)N[C@@H](CO)c1ccc(F)cc1F [Compound N44]
26 | 100 | 14.99 | 100 | C[C@H](NC(=O)[C@H](C)N1Cc2nc(C#N)ccc2NC1=O)c1ccc(F)cc1F [Compound N45]
27 | 100 | 100.00 | 100 | C[C@H](NC(=O)[C@@H](C)N1Cc2nc(C#N)ccc2NC1=O)c1ccc(F)cc1F [Compound N46]
28 | 0.2942 | 0.67 | 6.077 | C[C@@H](NC(=O)CN1C(=O)Nc2cccnc2C12CC2)c1ncc(F)cc1F [Compound N47]
29 | 100 | 100.00 | 100 | C[C@H](NC(=O)CN1C(=O)Nc2cccnc2C12CC2)c1ncc(F)cc1F [Compound N48]
30 | 100 | 100.00 | 100 | O=C(CN1Cc2c(ccnc2C(F)(F)F)NC1=O)N[C@H](CO)c1ncc(F)cc1F [Compound N49]
31 | 2.278 | 9.91 | 100 | O=C(CN1Cc2c(ccnc2C(F)(F)F)NC1=O)N[C@@H](CO)c1ncc(F)cc1F [Compound N50]
32 | 100 | 100.00 | 100 | CC(NC(=O)CN1Cc2c(ccnc2C2CC2(F)F)NC1=O)c1ncc(F)cc1F (stereo not drawn) [Compound N51]
33 | 15.28 | 98.42 | 100 | Cc1c(F)cnc2c1CN(CC(=O)N[C@H](C)c1ncc(F)cc1F)C(=O)N2 [Compound N52]
34 | 100 | 100.00 | 100 | Cc1c(F)cnc2c1CN(CC(=O)N[C@@H](C)c1ncc(F)cc1F)C(=O)N2 [Compound N53]
35 | 86.07 | 100.00 | 100 | C[C@H](NC(=O)CN1Cc2c(Cl)cncc2NC1=O)c1ccc(F)cc1F [Compound N56, 2-{5-Chloro-2-oxo-1H,4H-pyrido[3,4-d]pyrimidin-3-yl}-N-[(1S)-1-(2,4-difluorophenyl)ethyl]acetamide]
36 | 6.748 | 12.15 | 100 | Cc1c(F)cnc2c1CN(CC(=O)N[C@@H](C)c1ccc(F)cc1F)C(=O)N2 [Compound N57, N-[(1S)-1-(2,4-Difluorophenyl)ethyl]-2-{6-fluoro-5-methyl-2-oxo-1H,4H-pyrido[2,3-d]pyrimidin-3-yl}acetamide]
37 | 100 | 100.00 | 100 | C[C@@H](NC(=O)CN1Cc2nc(C#N)ccc2NC1=O)c1ncc(F)cc1F [Compound N58]
38 | 100 | 6.80 | 100 | C[C@H](NC(=O)CN1Cc2nc(C#N)ccc2NC1=O)c1ncc(F)cc1F [Compound N59]
39 | 1.385 | 1.15 | 81.4 | C[C@H](NC(=O)CN1Cc2nc(C#N)ccc2NC1=O)c1ccc(F)cc1F [Compound N60, (S)-2-(6-Cyano-2-oxo-1,4-dihydropyrido[3,2-d]pyrimidin-3(2H)-yl)-N-(1-(2,4-difluorophenyl)ethyl)acetamide]
40 | 100 | 100.00 | 100 | C[C@@H](NC(=O)CN1Cc2c(ccnc2C#N)NC1=O)c1ncc(F)cc1F [Compound N61]
41 | 0.1508 | 0.97 | 5.161 | C[C@H](NC(=O)CN1Cc2c(ccnc2C#N)NC1=O)c1ncc(F)cc1F [Compound N62]
42 | 100 | 100.00 | 100 | C[C@@H](NC(=O)CN1Cc2c(F)cncc2NC1=O)c1ncc(F)cc1F [Compound N63]
